Data from patent publication US11866720B2, “Transgenic or non-transgenic plants with mutated protoporphyrinogen oxidase having increased tolerance to herbicides” (priority 2013, dated 2024).
Numbering of substitutions follows the chain as printed. Values joined by “and” are separate entries in the source; they are usually repeats but may differ in a detail not shown here. Equal values may be shown once.

Legend:
Assay in all cases: biochemical
[1] = biological target: T1, recombinant wildtype and mutated PPO (Amaranthus PPO2: PPX2L_WC SEQ ID NO 2, PPX2L_AC SEQ ID NO 4, dG210 SEQ ID NO 6 & 8) (Amaranthus tuberculatus, UniProt Q0NZW9, D133A/F420M/R128I); conditions: IC50 (M)
T1 sequence (Q0NZW9 1-534 R128I/D133A/F420M): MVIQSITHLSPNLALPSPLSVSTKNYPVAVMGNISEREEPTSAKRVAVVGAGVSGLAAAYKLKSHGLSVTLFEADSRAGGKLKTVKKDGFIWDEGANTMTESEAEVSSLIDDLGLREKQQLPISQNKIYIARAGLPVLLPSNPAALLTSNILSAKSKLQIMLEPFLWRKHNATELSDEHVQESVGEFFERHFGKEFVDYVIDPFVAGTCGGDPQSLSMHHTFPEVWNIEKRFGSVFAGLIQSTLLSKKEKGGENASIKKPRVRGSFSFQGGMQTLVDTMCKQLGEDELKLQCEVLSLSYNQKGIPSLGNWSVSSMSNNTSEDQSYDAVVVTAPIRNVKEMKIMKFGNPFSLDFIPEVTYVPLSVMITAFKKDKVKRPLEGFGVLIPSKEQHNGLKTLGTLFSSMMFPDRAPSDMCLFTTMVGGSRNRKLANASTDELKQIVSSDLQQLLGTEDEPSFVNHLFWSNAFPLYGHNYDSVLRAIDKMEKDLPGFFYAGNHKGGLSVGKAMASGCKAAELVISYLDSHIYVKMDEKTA

[2] = biological target: recombinant wildtype and mutated PPO (Amaranthus PPO2: PPX2L_WC SEQ ID NO 2, PPX2L_AC SEQ ID NO 4, dG210 SEQ ID NO 6 & 8) (Amaranthus tuberculatus, UniProt Q0NZW9, D133A/F420I/R128H); conditions: IC50 (M)
[3] = biological target: T2, recombinant wildtype and mutated PPO (Amaranthus PPO2: PPX2L_WC SEQ ID NO 2, PPX2L_AC SEQ ID NO 4, dG210 SEQ ID NO 6 & 8) (Amaranthus tuberculatus, UniProt Q0NZW9, D133A/F420L/R128F); conditions: IC50 (M)
T2 sequence (Q0NZW9 1-534 R128F/D133A/F420L): T1 sequence (Q0NZW9 1-534 R128I/D133A/F420M) with I128F, M420L

[4] = biological target: T3, recombinant wildtype and mutated PPO (Amaranthus PPO2: PPX2L_WC SEQ ID NO 2, PPX2L_AC SEQ ID NO 4, dG210 SEQ ID NO 6 & 8) (Amaranthus tuberculatus, UniProt Q0NZW9, D133A/F420I/R128I); conditions: IC50 (M)
T3 sequence (Q0NZW9 1-534 R128I/D133A/F420I): T1 sequence (Q0NZW9 1-534 R128I/D133A/F420M) with M420I

[5] = biological target: recombinant wildtype and mutated PPO (Amaranthus PPO2: PPX2L_WC SEQ ID NO 2, PPX2L_AC SEQ ID NO 4, dG210 SEQ ID NO 6 & 8) (Amaranthus tuberculatus, UniProt Q0NZW9, D133A/F420L/R128H); conditions: IC50 (M)
[6] = biological target: recombinant wildtype and mutated PPO (Amaranthus PPO2: PPX2L_WC SEQ ID NO 2, PPX2L_AC SEQ ID NO 4, dG210 SEQ ID NO 6 & 8) (Amaranthus tuberculatus, UniProt Q0NZW9, D133A/F420V/R128H); conditions: IC50 (M)
[7] = biological target: recombinant wildtype and mutated PPO (Amaranthus PPO2: PPX2L_WC SEQ ID NO 2, PPX2L_AC SEQ ID NO 4, dG210 SEQ ID NO 6 & 8) (Amaranthus tuberculatus, UniProt Q0NZW9, R128A/F420V, form not given)
[8] = tested on: recombinant wildtype and mutated PPO (Amaranthus PPO2: PPX2L_WC SEQ ID NO 2, PPX2L_AC SEQ ID NO 4, dG210 SEQ ID NO 6 & 8); parameters: species or system Amaranthus tuberculatus

Chain of recombinant wildtype and mutated PPO (Amaranthus PPO2: PPX2L_WC SEQ ID NO 2, PPX2L_AC SEQ ID NO 4, dG210 SEQ ID NO 6 & 8) (Amaranthus tuberculatus, UniProt Q0NZW9, D133A/F420L/R128H) (Q0NZW9 1-534 R128H/D133A/F420L): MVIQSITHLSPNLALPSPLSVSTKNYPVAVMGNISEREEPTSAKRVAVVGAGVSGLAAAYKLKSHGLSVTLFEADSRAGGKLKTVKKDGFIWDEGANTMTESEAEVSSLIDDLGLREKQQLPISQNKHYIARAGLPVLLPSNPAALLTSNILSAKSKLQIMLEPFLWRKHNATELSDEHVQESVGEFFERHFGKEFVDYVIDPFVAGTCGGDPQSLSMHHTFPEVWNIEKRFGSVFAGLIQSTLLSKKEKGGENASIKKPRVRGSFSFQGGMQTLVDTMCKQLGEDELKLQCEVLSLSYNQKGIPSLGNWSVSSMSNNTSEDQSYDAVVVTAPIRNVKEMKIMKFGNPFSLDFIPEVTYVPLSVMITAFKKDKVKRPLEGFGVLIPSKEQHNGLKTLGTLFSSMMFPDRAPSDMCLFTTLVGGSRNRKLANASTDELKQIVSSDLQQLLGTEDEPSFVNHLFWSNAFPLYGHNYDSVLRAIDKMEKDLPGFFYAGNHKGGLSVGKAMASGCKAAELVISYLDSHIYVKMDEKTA
Chain of recombinant wildtype and mutated PPO (Amaranthus PPO2: PPX2L_WC SEQ ID NO 2, PPX2L_AC SEQ ID NO 4, dG210 SEQ ID NO 6 & 8) (Amaranthus tuberculatus, UniProt Q0NZW9, D133A/F420V/R128H) (Q0NZW9 1-534 R128H/D133A/F420V): as the sequence (Q0NZW9 1-534 R128H/D133A/F420L) above, with L420V counted along it
Chain of recombinant wildtype and mutated PPO (Amaranthus PPO2: PPX2L_WC SEQ ID NO 2, PPX2L_AC SEQ ID NO 4, dG210 SEQ ID NO 6 & 8) (Amaranthus tuberculatus, UniProt Q0NZW9, D133A/F420I/R128H) (Q0NZW9 1-534 R128H/D133A/F420I): as the sequence (Q0NZW9 1-534 R128H/D133A/F420L) above, with L420I counted along it
Chain of recombinant wildtype and mutated PPO (Amaranthus PPO2: PPX2L_WC SEQ ID NO 2, PPX2L_AC SEQ ID NO 4, dG210 SEQ ID NO 6 & 8) (Amaranthus tuberculatus, UniProt Q0NZW9, R128A/F420V, form not given) (Q0NZW9 1-534 R128A/F420V, form open): as the sequence (Q0NZW9 1-534 R128H/D133A/F420L) above, with H128A, A133D, L420V counted along it

Row | SMILES | IC50 [1] | IC50 [2] | IC50 [3] | IC50 [4] | IC50 [5] | IC50 [6] | IC50 [7] | inhibition (%) at 1 × 10−5M [8]
1 | C#CCN1C(=O)C(F)(F)Oc2cc(F)c(-n3c(=O)n(C)c(=S)n(C)c3=O)cc21 | 6.1e-08 M | 8.22e-08 M | 1.01e-06 M | 1.38e-07 M | 7.98e-08 M | 7.63e-08 M |  | 
2 | C#CCN1C(=O)C(F)(F)Oc2cc(F)c(-n3c(=O)cc(C(F)(F)F)n(C)c3=O)cc21 |  |  |  |  |  |  | 6.33 nM | 
3 | C#CCN1C(=O)C(F)(F)Oc2cc(F)c(N3C(=O)C4=C(CCCC4)C3=O)cc21 |  |  |  |  |  |  | 274 nM | 
4 | COC(Oc1ccccc1Oc1cc(-n2c(=O)cc(C(F)(F)F)n(C)c2=O)c(F)cc1Cl)C(=O)OC1CCCCC1 (stereo not shown) | 1.06e-08 M | 1.31e-06 M | 1.18e-06 M | 1.82e-06 M | 6.93e-07 M | 9.06e-08 M |  | 
5 | COC(=O)C(OC)Oc1ccccc1Oc1cc(-n2c(=O)cc(C(F)(F)F)n(C)c2=O)c(F)cc1Cl (stereo not shown) | 1.15e-08 M | 7.54e-08 M | 4.84e-08 M | 2.27e-08 M | 4.47e-08 M | 6.93e-09 M |  | 
6 | O=C(O)c1cc(Oc2ccc(C(F)(F)F)cc2Cl)ccc1[N+](=O)[O-] [ACIFLUORFEN] |  |  |  |  |  |  |  | 39% and 33% and 27%
7 | C#CCN1C(=O)COc2cc(F)c(N3C(=O)C4=C(CCCC4)C3=O)cc21 [Flumioxazin, flumioxazin] |  |  |  |  |  |  |  | 41% and 48% and 30%
